In patent publication US20180177778A1, “Methods for Treating HCV” (priority 2015, published 2018):

Key:
[1] = human, in vivo
Protocol: All subjects received ombitasvir/paritaprevir/ritonavir 25/150/100 mg QD and dasabuvir 250 mg BID±weight based RBV. DAAs (OBV, PTV, or DSV) and RTV AUC values were available from 2093 subjects and RBV AUC values were available from 1584 subjects. The dataset included subjects with normal renal function (NF) (CrCl ≥90 mL/min, n=1495), mild renal impairment (RI) (CrCL 60-89 mL/min, n=576) and moderate RI (CrCL 30-59 mL/min, n=22). […] CrCL was retained in the models, regardless of its statistical significance, to determine the effect, if any, on the AUC values.

[2] = in vivo; cited from earlier work
[3] = Population pharmacokinetics in HCV GT1 subjects with CKD Stage 4 or 5 (Example 17); type: in vivo, human; settings: vs subjects without kidney disease
Protocol: Pharmacokinetic data from a Phase 2 study (N=38) in subjects with normal or mild renal impairment (subjects “without kidney disease”) were combined with preliminary data from a Phase 3b study in subjects with CKD Stage 4 (N=5) or Stage 5 on hemodialysis (N=14). In both studies subjects received OBV/PTV/r 25/150/100 mg QD and DSV 250 mg BID±RBV for 12 weeks. Pharmacokinetic parameters and steady-state exposures of the 3-DAA regimen were estimated using population pharmacokinetic models.

[4] = Effect of food on bioavailability of co-formulated tablets, healthy Japanese subjects (Example 20); type: in vivo, human; settings: for Tmax: both sexes, mean Tmax
From the text: Japanese male and female volunteers 20 to 55 years of age in general good health with a body mass index ≥18.5 and <25 kg/m^2 were eligible to enroll. Subjects who had positive test results for hepatitis A, B, or C, or for HIV infection, and subjects who were using known inhibitors or inducers of CYP3A isozyme or organic anion transporting polypeptide 1B1 (OATP1B1) inhibitors were excluded from participation. Subjects were not to have consumed alcohol, grapefruit, star fruit, or Seville oranges within 72 hours, or to have used nicotine-containing products within 6 months before study drug administration.
This was a 2-sequence 2-period crossover study. A single dose of two ombitasvir/paritaprevir/ritonavir 12.5/75/50 mg coformulated tablets (total dose of 25/150/100 mg) was administered in the morning on Study Day 1 of each period as follows:
PK parameters for ombitasvir, paritaprevir, and ritonavir were estimated by noncompartmental methods using Phoenix WinNonlin, version 6.3 (Pharsight, A Certara® Company, St. Louis, Mo.) including maximum plasma concentration (Cmax), time to Cmax (Tmax), area under the plasma concentration-time curve (AUC), and terminal-phase elimination half-life (t1/2). The effect of food on the bioavailability of ombitasvir, paritaprevir, and ritonavir was assessed using a repeated measures analysis of natural logarithms of Cmax and AUC values. Point estimates of central value ratios and their 90% confidence intervals (CIs) for Cmax and AUC were calculated to quantify the magnitude of food effect. Statistical analyses were conducted using SAS, version 9.2 (SAS Institute, Inc., Cary, N.C.).

exposures lower in CKD Stage 5 [3]	Tmax ([4]; human, in vivo)	increase of mean AUC ([4]; both, human, in vivo)	mean Tmax ([4]; both, human, in vivo)	Compound	exposures higher in CKD Stage 4 subjects [3]	also measured
~37%				COc1c(-c2ccc3cc(NS(C)(=O)=O)ccc3c2)cc(-n2ccc(=O)[nH]c2=O)cc1C(C)(C)C [Compound 3, N-(6-(3-tert-butyl-5-(2,4-dioxo-3,4-dihydropyrimidin-1(2H)-yl)-2-methoxyphenyl)naphthalen-2-yl)methanesulfonamide]		
	4.2 h	228%	5.2 h	Cc1cnc(C(=O)N[C@H]2CCCCC/C=C\[C@@H]3C[C@@]3(C(=O)NS(=O)(=O)C3CC3)NC(=O)[C@@H]3C[C@@H](Oc4nc5ccccc5c5ccccc45)CN3C2=O)cn1 [Compound 1, (2R,6S,13aS,14aR,16aS,Z)—N-(cyclopropylsulfonyl)-6-(5-methylpyrazine-2-carboxamido)-5,16-dioxo-2-(phenanthridin-6-yloxy)-1,2,3,5,6,7,8,9,10,11,13a,14,14a,15,16,16a-hexadecahydrocyclopropa[e]pyrrolo[1,2-a][1,4]diazacyclopentadecine-14a-carboxamide]		

Continued, compound first:

Compound	exposures lower in CKD Stage 5 [3]	Tmax ([4]; human, in vivo)	increase of mean AUC ([4]; both, human, in vivo)	mean Tmax ([4]; both, human, in vivo)	exposures higher in CKD Stage 4 subjects [3]	also measured
NC(=O)c1ncn([C@@H]2O[C@H](CO)[C@@H](O)[C@H]2O)n1 [Ribavirin, ribavirin]						AUC values higher in mild/moderate RI compared to NF [1]: up to 17%; absolute bioavailability [2]: approximately 50%
CC(C)c1nc(CN(C)C(=O)N[C@H](C(=O)N[C@@H](Cc2ccccc2)C[C@H](O)[C@H](Cc2ccccc2)NC(=O)OCc2cncs2)C(C)C)cs1 [ritonavir, reference compound]	about 33%	3.4 h	34%	4.9 h	~200%	
dimethyl (2S,2′S)-1,1′-((2S,2′S)-2,2′-(4,4′-((2S,5S)-1-(4-tert-butylphenyl)pyrrolidine-2,5,diyl)bis(4,1-phenylene))bis(azanediyl)bis(oxomethylene)bis(pyrrolidine-2,1-diyl)bis(3-methyl-1-oxobutane-2,1-diyl)dicarbamate [Compound 2]					about 80%	mean Tmax ([4]; fasting conditions, single dose 25/150/100 mg): 4.4 h; increase of mean AUC ([4]; high fat meal relative to fasting, Japanese subjects): 73%; mean Tmax ([4]; with a high fat meal, single dose 25/150/100 mg): 5.3 h
